Assay results from PubChem BioAssay (NCI).
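Five compound concentrations were applied to cells in 96-well plates for 48 hours; endpoints were derived by simple linear interpolation of the resulting dose-response curve. TGI marks complete inhibition of growth.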

Tests used:
Experiment in all cases: DTP human tumour cell line panel, 48 h
SR leukemia = tested on: SR leukemia
OVCAR-8 ovarian = tested on: OVCAR-8 ovarian
A549 NSCLC = tested on: A549 NSCLC
HS 578T breast = tested on: HS 578T breast
EKVX NSCLC = tested on: EKVX NSCLC
U251 CNS = tested on: U251 CNS
ACHN renal = tested on: ACHN renal
SN12C renal = tested on: SN12C renal
LOX IMVI melanoma = tested on: LOX IMVI melanoma
HCC-2998 colon = tested on: HCC-2998 colon
RPMI-8226 leukemia = tested on: RPMI-8226 leukemia
MALME-3M melanoma = tested on: MALME-3M melanoma
KM12 colon = tested on: KM12 colon
SNB-75 CNS = tested on: SNB-75 CNS
SNB-19 CNS = tested on: SNB-19 CNS
SK-MEL-5 melanoma = tested on: SK-MEL-5 melanoma
SF-539 CNS = tested on: SF-539 CNS
SK-OV-3 ovarian = tested on: SK-OV-3 ovarian
NCI-H460 lung = tested on: NCI-H460 lung
MDA-MB-231 breast = tested on: MDA-MB-231 breast
NCI/ADR-RES ovarian = tested on: NCI/ADR-RES ovarian
MCF7 breast = tested on: MCF7 breast
OVCAR-5 ovarian = tested on: OVCAR-5 ovarian
MDA-N = tested on: MDA-N
A498 renal = tested on: A498 renal
DU-145 prostate = tested on: DU-145 prostate
SK-MEL-2 melanoma = tested on: SK-MEL-2 melanoma
HL-60(TB) leukemia = tested on: HL-60(TB) leukemia
MOLT-4 leukemia = tested on: MOLT-4 leukemia
HCT-116 colon = tested on: HCT-116 colon
PC-3 prostate = tested on: PC-3 prostate
SW-620 colon = tested on: SW-620 colon
K-562 leukemia = tested on: K-562 leukemia
UO-31 renal = tested on: UO-31 renal
TK-10 renal = tested on: TK-10 renal
NCI-H522 lung = tested on: NCI-H522 lung
NCI-H23 lung = tested on: NCI-H23 lung
IGROV1 ovarian = tested on: IGROV1 ovarian
786-0 renal = tested on: 786-0 renal
T-47D breast = tested on: T-47D breast
MDA-MB-435 = tested on: MDA-MB-435
RXF 393 renal = tested on: RXF 393 renal
SF-268 CNS = tested on: SF-268 CNS
CAKI-1 renal = tested on: CAKI-1 renal
SF-295 CNS = tested on: SF-295 CNS
OVCAR-4 ovarian = tested on: OVCAR-4 ovarian
HCT-15 colon = tested on: HCT-15 colon
NCI-H226 lung = tested on: NCI-H226 lung
COLO 205 colon = tested on: COLO 205 colon
HT29 colon = tested on: HT29 colon
M14 melanoma = tested on: M14 melanoma
UACC-62 melanoma = tested on: UACC-62 melanoma
CCRF-CEM leukemia = tested on: CCRF-CEM leukemia
HOP-62 NSCLC = tested on: HOP-62 NSCLC
OVCAR-3 ovarian = tested on: OVCAR-3 ovarian
SK-MEL-28 melanoma = tested on: SK-MEL-28 melanoma
UACC-257 melanoma = tested on: UACC-257 melanoma
HOP-92 NSCLC = tested on: HOP-92 NSCLC
BT-549 breast = tested on: BT-549 breast

`CN1CCCC1=NC#N` was tested, and the TGI (SR leukemia) was over 100 µM, the TGI (OVCAR-8 ovarian) was over 100 µM and the TGI (A549 NSCLC) was over 100 µM. For the same compound, the TGI (HS 578T breast) was over 100 µM, the TGI (EKVX NSCLC) was over 100 µM and the TGI (U251 CNS) was over 100 µM. The TGI (ACHN renal) was over 100 µM, the TGI (SN12C renal) was over 100 µM and the TGI (LOX IMVI melanoma) was over 100 µM. For the same compound, the TGI (HCC-2998 colon) was over 100 µM, the TGI (RPMI-8226 leukemia) was over 100 µM and the TGI (MALME-3M melanoma) was over 100 µM. It also gave a TGI (KM12 colon) of over 100 µM, a TGI (SNB-75 CNS) of over 100 µM and a TGI (SNB-19 CNS) of over 100 µM. The TGI (SK-MEL-5 melanoma) was over 100 µM, the TGI (SF-539 CNS) was over 100 µM and the TGI (SK-OV-3 ovarian) was over 100 µM. For the same compound, the TGI (NCI-H460 lung) was over 100 µM, the TGI (MDA-MB-231 breast) was over 100 µM and the TGI (NCI/ADR-RES ovarian) was over 100 µM. For the same compound, the TGI (MCF7 breast) was over 100 µM, the TGI (OVCAR-5 ovarian) was over 100 µM and the TGI (MDA-N) was over 100 µM. The TGI (A498 renal) was over 100 µM, the TGI (DU-145 prostate) was over 100 µM and the TGI (SK-MEL-2 melanoma) was over 100 µM. It also gave a TGI (HL-60(TB) leukemia) of over 100 µM, a TGI (MOLT-4 leukemia) of over 100 µM and a TGI (HCT-116 colon) of over 100 µM. The TGI (PC-3 prostate) was over 100 µM, the TGI (SW-620 colon) was over 100 µM and the TGI (K-562 leukemia) was over 100 µM. The TGI (UO-31 renal) was over 100 µM, the TGI (TK-10 renal) was over 100 µM and the TGI (NCI-H522 lung) was over 100 µM. The TGI (NCI-H23 lung) was over 100 µM, the TGI (IGROV1 ovarian) was over 100 µM and the TGI (786-0 renal) was over 100 µM. For the same compound, the TGI (T-47D breast) was over 100 µM, the TGI (MDA-MB-435) was over 100 µM and the TGI (RXF 393 renal) was over 100 µM. The TGI (SF-268 CNS) was over 100 µM, the TGI (CAKI-1 renal) was over 100 µM and the TGI (SF-295 CNS) was over 100 µM. It also gave a TGI (OVCAR-4 ovarian) of over 100 µM, a TGI (HCT-15 colon) of over 100 µM and a TGI (NCI-H226 lung) of over 100 µM. For the same compound, the TGI (COLO 205 colon) was over 100 µM, the TGI (HT29 colon) was over 100 µM and the TGI (M14 melanoma) was over 100 µM. For the same compound, the TGI (UACC-62 melanoma) was over 100 µM, the TGI (CCRF-CEM leukemia) was over 100 µM and the TGI (HOP-62 NSCLC) was over 100 µM. For the same compound, the TGI (OVCAR-3 ovarian) was over 100 µM and the TGI (SK-MEL-28 melanoma) was over 100 µM.

`CC(C)=C[C@@H]1C[C@H](C)c2c(O)cc(C)c3c2C1=C(C)C(=O)C3=O` gave a TGI (OVCAR-8 ovarian) of 35.2 µM, a TGI (A549 NSCLC) of 21.7 µM and a TGI (HS 578T breast) of 41.8 µM. The TGI (EKVX NSCLC) was 33 µM, the TGI (U251 CNS) was 26.7 µM and the TGI (ACHN renal) was 34.3 µM. The TGI (SN12C renal) was 28.3 µM, the TGI (LOX IMVI melanoma) was 33.3 µM and the TGI (HCC-2998 colon) was 54.3 µM. For the same compound, the TGI (RPMI-8226 leukemia) was 41.6 µM, the TGI (MALME-3M melanoma) was 29.4 µM and the TGI (UACC-257 melanoma) was 37.5 µM. It also gave a TGI (KM12 colon) of 31.3 µM, a TGI (SNB-75 CNS) of 31.4 µM and a TGI (SNB-19 CNS) of 29.1 µM. For the same compound, the TGI (HOP-92 NSCLC) was 26.9 µM, the TGI (SK-MEL-5 melanoma) was 26.5 µM and the TGI (SF-539 CNS) was 32.3 µM. It also gave a TGI (SK-OV-3 ovarian) of 30.9 µM, a TGI (NCI-H460 lung) of 48.8 µM and a TGI (MDA-MB-231 breast) of 33.9 µM. The TGI (NCI/ADR-RES ovarian) was 49.6 µM, the TGI (MCF7 breast) was 65.8 µM and the TGI (OVCAR-5 ovarian) was 62.2 µM. The TGI (MDA-N) was 33.7 µM, the TGI (A498 renal) was 37.4 µM and the TGI (DU-145 prostate) was 28.6 µM. The TGI (HL-60(TB) leukemia) was 44.4 µM, the TGI (MOLT-4 leukemia) was over 100 µM and the TGI (HCT-116 colon) was 28.5 µM. It also gave a TGI (PC-3 prostate) of 23.6 µM, a TGI (SW-620 colon) of 32.4 µM and a TGI (K-562 leukemia) of 40.1 µM. It also gave a TGI (TK-10 renal) of 45.9 µM, a TGI (NCI-H522 lung) of 28.8 µM and a TGI (NCI-H23 lung) of 32.5 µM. The TGI (IGROV1 ovarian) was 35.2 µM, the TGI (786-0 renal) was 36.1 µM and the TGI (MDA-MB-435) was 29.4 µM. For the same compound, the TGI (SF-268 CNS) was 31.4 µM, the TGI (CAKI-1 renal) was 30.2 µM and the TGI (SF-295 CNS) was 30.4 µM. The TGI (OVCAR-4 ovarian) was 23.4 µM, the TGI (BT-549 breast) was 28.1 µM and the TGI (HCT-15 colon) was 29.4 µM. For the same compound, the TGI (NCI-H226 lung) was 33 µM, the TGI (COLO 205 colon) was 32.6 µM and the TGI (HT29 colon) was 40.6 µM. For the same compound, the TGI (M14 melanoma) was 27 µM, the TGI (UACC-62 melanoma) was 29.6 µM and the TGI (CCRF-CEM leukemia) was 47.2 µM. It also gave a TGI (HOP-62 NSCLC) of 35.8 µM, a TGI (OVCAR-3 ovarian) of 32.1 µM and a TGI (SK-MEL-28 melanoma) of 29.8 µM.
